# Legend:
# SF539 (Astrocytoma) = experiment: NCI60 panel IC50; assay type: cell-based; details: Homo sapiens, SF-539
# Protocol: (§1) On the other hand, the values of IC50 were determined in the panel of NCl60 cell lines for compound 10.
# (§2) A total of 2 independent experiments were carried out with assays in triplicate for the compound and cell line. All those assays where an IC50 value was not reached in the highest concentration of 1E-05 M are represented by “>1E-05”. In these cases, the standard deviation cannot be calculated and for that reason it is calculated as “-”.
# SK-BR-3 (Breast) = experiment: NCI60 panel IC50; assay type: cell-based; details: Homo sapiens
# Protocol: as §1, §2
# MDA-MB-468 (Breast) = experiment: NCI60 panel IC50; assay type: cell-based; details: Homo sapiens
# Protocol: as §1, §2
# MDA-MB-231 (Breast) = experiment: NCI60 panel IC50; assay type: cell-based; details: Homo sapiens
# Protocol: as §1, §2
# NCI-H226 (Lung) = experiment: NCI60 panel IC50; assay type: cell-based; details: Homo sapiens
# Protocol: as §1, §2
# EKVX (Lung) = experiment: NCI60 panel IC50; assay type: cell-based; details: Homo sapiens
# Protocol: as §1, §2
# M-14 (Melanoma) = experiment: NCI60 panel IC50; assay type: cell-based; details: Homo sapiens, M14
# Protocol: as §1, §2
# A549 (Lung) = experiment: NCI60 panel IC50; assay type: cell-based; details: Homo sapiens
# Protocol: as §1, §2
# TK-10 (Renal) = experiment: NCI60 panel IC50; assay type: cell-based; details: Homo sapiens
# Protocol: as §1, §2
# HOP-62 (Lung) = experiment: NCI60 panel IC50; assay type: cell-based; details: Homo sapiens
# Protocol: as §1, §2
# COLO-205 (Colon) = experiment: NCI60 panel IC50; assay type: cell-based; details: Homo sapiens
# Protocol: as §1, §2
# RXF-393 (Renal) = experiment: NCI60 panel IC50; assay type: cell-based; details: Homo sapiens
# Protocol: as §1, §2
# SN 12C (Renal) = experiment: NCI60 panel IC50; assay type: cell-based; details: Homo sapiens, SN12C
# Protocol: as §1, §2
# RPMI-8226 (Leukaemia) = experiment: NCI60 panel IC50; assay type: cell-based; details: Homo sapiens
# Protocol: as §1, §2
# DAUDI (Leukaemia) = experiment: NCI60 panel IC50; assay type: cell-based; details: Homo sapiens
# Protocol: as §1, §2
# SHP-77 (Lung) = experiment: NCI60 panel IC50; assay type: cell-based; details: Homo sapiens, SHP77
# Protocol: as §1, §2
# HCT-116 (Colon) = experiment: NCI60 panel IC50; assay type: cell-based; details: Homo sapiens
# Protocol: as §1, §2
# Caki-1 (Renal) = experiment: NCI60 panel IC50; assay type: cell-based; details: Homo sapiens
# Protocol: as §1, §2
# HOP-92 (Lung) = experiment: NCI60 panel IC50; assay type: cell-based; details: Homo sapiens
# Protocol: as §1, §2
# SK-MEL-5 (Melanoma) = experiment: NCI60 panel IC50; assay type: cell-based; details: Homo sapiens
# Protocol: as §1, §2
# BT-549 (Breast) = experiment: NCI60 panel IC50; assay type: cell-based; details: Homo sapiens
# Protocol: as §1, §2
# U251 = experiment: cell viability assay; assay type: cell-based, human; details: U251 glioblastoma, 72 h, with respect to untreated control cells
smiles,measurement,setting,value
CN1CCCNc2c(c(=O)c2=O)NCCCN(C)CCCNc2c(c(=O)c2=O)NCCCN(C)CCCNc2c(c(=O)c2=O)NCCCN(C)CCCNc2c(c(=O)c2=O)NCCCN(C)CCCNc2c(c(=O)c2=O)NCCC1 [Compound 10],IC50,SF539 (Astrocytoma),3520 nM
same,IC50,SK-BR-3 (Breast),308 nM
same,IC50,MDA-MB-468 (Breast),2370 nM
same,IC50,MDA-MB-231 (Breast),2320 nM
same,IC50,NCI-H226 (Lung),1530 nM
same,IC50,EKVX (Lung),2750 nM
same,IC50,M-14 (Melanoma),7210 nM
same,IC50,A549 (Lung),5290 nM
same,IC50,TK-10 (Renal),3360 nM
same,IC50,HOP-62 (Lung),6370 nM
same,IC50,COLO-205 (Colon),3230 nM
same,IC50,RXF-393 (Renal),2770 nM
same,IC50,SN 12C (Renal),4120 nM
same,IC50,RPMI-8226 (Leukaemia),8970 nM
same,IC50,DAUDI (Leukaemia),1990 nM
same,IC50,SHP-77 (Lung),2900 nM
same,IC50,HCT-116 (Colon),2980 nM
same,IC50,Caki-1 (Renal),5750 nM
same,IC50,HOP-92 (Lung),3530 nM
same,IC50,SK-MEL-5 (Melanoma),2750 nM
same,IC50,BT-549 (Breast),2210 nM
same,% Cell viability,U251,85%

# From patent US20110294772A1, “USE OF CYCLOSQUARAMIDE COMPOUNDS AS ANTI-TUMOUR AGENTS” (priority 2008, published 2011)
